In PubChem BioAssay AID588566 (The Scripps Research Institute Molecular Screening Center, 2011):

target: Neuropeptides B/W receptor type 1 (Homo sapiens) (UniProt P48145); experiment: GPR7 antagonist potency, late-stage follow-up, cell-based, fluorescence, dose response, set 5 (AID 588566); details: GPR7-expressing cells, fluorescence antagonist assay
Sequence (P48145 whole entry, looked up): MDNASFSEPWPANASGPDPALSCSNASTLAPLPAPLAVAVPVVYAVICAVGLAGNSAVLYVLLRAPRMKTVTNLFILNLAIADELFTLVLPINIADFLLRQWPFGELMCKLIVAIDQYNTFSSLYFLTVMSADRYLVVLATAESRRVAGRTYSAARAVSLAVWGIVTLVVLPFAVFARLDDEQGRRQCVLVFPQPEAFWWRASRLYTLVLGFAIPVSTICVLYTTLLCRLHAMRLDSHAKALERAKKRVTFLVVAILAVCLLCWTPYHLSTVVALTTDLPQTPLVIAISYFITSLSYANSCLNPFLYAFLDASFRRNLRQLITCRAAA

IC50, active:
COc1cc(Oc2c(Cl)cnn(Cc3cccc4ccccc34)c2=O)cc(OC)c1OC 1.79 µM
CCc1cccc(Oc2c(Cl)cnn(Cc3cccc4ccccc34)c2=O)c1 8.55 µM
COc1ccc(Oc2c(Cl)cnn(-c3nc4ccccc4c(=O)c4ccccc34)c2=O)cc1 2.21 µM
COc1ccc(Oc2c(Cl)cnn(C3c4ccccc4Oc4ccccc43)c2=O)cc1 3.11 µM
COc1ccc(Oc2c(Cl)cnn(C3=Nc4cc(Cl)ccc4Oc4ncccc43)c2=O)cc1 0.527 µM
O=c1c(Oc2ccc3c(c2)CCC3)c(Cl)cnn1Cc1cccc2ccccc12 0.834 µM
